The source of these data is US20190175528A1, “INHIBITION OF BIOFILM ORGANISMS” (NovaBiotics Limited, priority 2009, published 2019).

Assay [1] relates to S. aureus ATCC25923. The assay is classed as cell-based, Staphylococcus aureus. The settings on record: ATCC25923, 24 h. On the procedure: (§1) The bacterial inoculum was established by the dilution method from actively-growing cultures in Mueller-Hinton broth, standardized with 0.5 McFarland turbidity standard as described in the CLSI method M26-A.
(§2) To determine the prevention of biofilm formation, both the bacterial inoculum and the antimicrobial agents were added simultaneously to the plates. The plates were incubated at 37° C. for 24 h and the optical density was read at 625 nm on a microtitre plate reader (BioTek Powerwave XS, Winooski, USA). The MIC was obtained as the lowest concentration of antimicrobial showing total inhibition of bacterial growth.

The test system of assay [2] is S. aureus ATCC25923. The settings on record: ATCC25923, pH 7.
Assay [3] deals with P. aeruginosa ATCC BAA-47. The settings on record: for MBC at pH5.5, P. aeruginosa ATCCBAA-47 / MBC pH5.5, 320 mM NaCl, P. aeruginosa ATCCBAA-47: ATCC BAA-47, pH 5.5; for MBC following MIC at pH 7, P. aeruginosa ATCCBAA-47: ATCC BAA-47, pH 7.
The test system of assay [4] is P. aeruginosa DSMZ1128. As to conditions: DSMZ1128, pH 7.
The subject of assay [5] is P. aeruginosa DSMZ1299. The assay is classed as cell-based, Pseudomonas aeruginosa. The settings on record: DSMZ1299, 24 h, pH 7. On the procedure:
as §1, §2

For assay [6], the system named is P. aeruginosa DSMZ1128. Type of assay: cell-based, Pseudomonas aeruginosa. As to conditions: DSMZ1128, 24 h. The procedure: as §1, §2
Assay [7] concerns S. epidermidis ATCC12228. The settings on record: ATCC12228, pH 7.
Assay [8] deals with S. aureus DSM 11729 (MRSA). As to conditions: for MBC at pH5.5, S. aureus 11729 / MBC pH5.5, 320 mM NaCl, S. aureus 11729: DSM 11729, pH 5.5; for MBC following MIC at pH 7, S. aureus DSMZ11729: DSM 11729, pH 7.
The test system of assay [9] is P. aeruginosa ATCC BAA-47. Nature of the assay: microbe, parasite or virus in culture. The settings on record: ATCC BAA-47, 24 h; for MIC pH5.5, 320 mM NaCl, P. aeruginosa ATCCBAA-47 / MIC pH5.5, P. aeruginosa ATCCBAA-47: pH 5.5. The assay is classed as cell-based, Pseudomonas aeruginosa. The procedure: as §1
(§3) To determine the prevention of biofilm formation, both the bacterial inoculum and the antimicrobial agents were added simultaneously to the plates. The plates were incubated at 37° C. for 24 h and the optical density was read at 625 nm on a microtitre plate reader (BioTek Powerwave XS, Winooski, USA). The MIC was obtained as the lowest concentration of antimicrobial showing total inhibition of bacterial growth. […]
(§4) FIC=MICA[combination]/MICA[alone]+MICB[combination]/MICB[alone] […]
(§5) In order to assess for the prevention of biofilm formation by both Gram-positive and Gram-negative bacteria, the bacterial inoculum and antimicrobial agents were added simultaneously in the plates. The range of concentrations of antimicrobial agents was 0-500 μg/ml NP108 and 0-320 μg/ml cysteamine against the Gram-negative bacteria P. aeruginosa ATCC BAA-47 and 0-1000 μg/ml NP108 and 0-320 μg/ml cysteamine against the Gram-positive MRSA.

Assay [10] has as its system S. epidermidis ATCC12228. Type of assay: cell-based, Staphylococcus epidermidis. The settings on record: ATCC12228, 24 h. The procedure: as §1, §2
In assay [11] the test system is S. aureus DSM 11729 (MRSA). In words: microbe, parasite or virus in culture. Type of assay: cell-based, Staphylococcus aureus. The settings on record: DSM 11729, 24 h; for MIC pH5.5, 320 mM NaCl, S. aureus 11729 / MIC pH5.5, S. aureus 11729: pH 5.5. The procedure: as §1, §3, §4, §5
The subject of assay [12] is P. aeruginosa DSMZ1299. As to conditions: DSMZ1299, pH 7.

Numbered stars: 1 amine (or outer) side, 2 acyl side, 3 side chain; on linkers, the order of the positions; unused ones are H or OH. Ends that are not written are not given here. Peptide text beside a SMILES is read from it. Cysteamide = C(CS[*:3])N[*:1] Some results are limits rather than exact numbers.

In general, MBC refers to the lowest tested concentration that kills the bacteria rather than only halting them. The low end stands for greater bactericidal potency, the high end for weaker bactericidal potency. For the molecule HHHFRFFFRFRRR [NP438, HHHFRFFFRFRRR], the “MIC at pH 7, S. aureus ATCC25923” value in the assay with S. aureus ATCC25923 [1] is more than 500 μg/ml. The “MBC following MIC at pH 7, S. aureus ATCC25923” value with S. aureus ATCC25923 [2] is given as more than 500 μg/ml. For the same molecule, in assay [3], the “MBC at pH5.5, P. aeruginosa ATCCBAA-47” value is reported as more than 500 μg/ml; the “MBC pH5.5, 320 mM NaCl, P. aeruginosa ATCCBAA-47” value is more than 500 μg/ml; the “MBC following MIC at pH 7, P. aeruginosa ATCCBAA-47” value is listed as more than 500 μg/ml. In addition, the “MBC following MIC at pH 7, P. aeruginosa DSMZ1128” value in the assay with P. aeruginosa DSMZ1128 [4] is listed as more than 500 μg/ml. Besides, the “MIC at pH 7, P. aeruginosa D5MZ1299” value in the assay with P. aeruginosa DSMZ1299 [5] was found to be 500 μg/ml. The “MIC at pH 7, P. aeruginosa DSMZ1128” value against P. aeruginosa DSMZ1128 [6] is given as more than 500 μg/ml. Also, the “MBC following MIC at pH 7, S. epidermidis ATCC12228” value against S. epidermidis ATCC12228 [7] was determined as 125 μg/ml. Further, in [8], the “MBC at pH5.5, S. aureus 11729” value is more than 500 μg/ml; the “MBC pH5.5, 320 mM NaCl, S. aureus 11729” value was more than 500 μg/ml; the “MBC following MIC at pH 7, S. aureus DSMZ11729” value is recorded as more than 500 μg/ml. Besides, in [9], the “MIC pH5.5, 320 mM NaCl, P. aeruginosa ATCCBAA-47” value was found to be 62.5 μg/ml; the “MIC pH5.5, P. aeruginosa ATCCBAA-47” value is 125 μg/ml; the “MIC at pH 7, P. aeruginosa ATCCBAA-47” value is more than 500 μg/ml. Moreover, the “MIC at pH 7, S. epidermidis ATCC12228” value in the assay on S. epidermidis ATCC12228 [10] is less than 7.8 μg/ml. Moreover, in [11], the “MIC pH5.5, 320 mM NaCl, S. aureus 11729” value is reported as more than 500 μg/ml; the “MIC pH5.5, S. aureus 11729” value is on record as more than 500 μg/ml; the “MIC at pH 7, S. aureus DSMZ11729” value is on record as more than 500 μg/ml. Further, the “MBC following MIC at pH 7, P. aeruginosa DSMZ1299” value in the assay with P. aeruginosa DSMZ1299 [12] is on record as more than 500 μg/ml.
With `N=C(N)NCCC[C@H](NC(=O)[C@H](CCCNC(=N)N)NC(=O)[C@H](CCCNC(=N)N)NC(=O)[C@H](CCCNC(=N)N)NC(=O)[C@@H](N)CCCNC(=N)N)C(=O)N[C@@H](Cc1c[nH]cn1)C(=O)N[C@@H](Cc1c[nH]cn1)C(=O)NCCS` [NP458, RRRRRHH-cysteamine] (H-RRRRRHH-Cysteamide; N-terminus assumed), the “MIC at pH 7, S. aureus ATCC25923” value in the assay on S. aureus ATCC25923 [1] stood at 250 μg/ml. Besides, the “MBC following MIC at pH 7, S. aureus ATCC25923” value in the assay with S. aureus ATCC25923 [2] is 125 μg/ml. In addition, in assay [3], the “MBC at pH5.5, P. aeruginosa ATCCBAA-47” value is recorded as more than 500 μg/ml; the “MBC pH5.5, 320 mM NaCl, P. aeruginosa ATCCBAA-47” value is more than 500 μg/ml; the “MBC following MIC at pH 7, P. aeruginosa ATCCBAA-47” value was more than 500 μg/ml. Besides, the “MBC following MIC at pH 7, P. aeruginosa DSMZ1128” value with P. aeruginosa DSMZ1128 [4] is given as more than 500 μg/ml. Further, the “MIC at pH 7, P. aeruginosa D5MZ1299” value in the assay on P. aeruginosa DSMZ1299 [5] came out at 125 μg/ml. In addition, in the assay on P. aeruginosa DSMZ1128 [6], the “MIC at pH 7, P. aeruginosa DSMZ1128” value was found to be 250 μg/ml. The “MBC following MIC at pH 7, S. epidermidis ATCC12228” value with S. epidermidis ATCC12228 [7] came to 500 μg/ml. Besides, in [8], the “MBC at pH5.5, S. aureus 11729” value is listed as more than 500 μg/ml; the “MBC pH5.5, 320 mM NaCl, S. aureus 11729” value is listed as more than 500 μg/ml; the “MBC following MIC at pH 7, S. aureus DSMZ11729” value is on record as 250 μg/ml. Further, in assay [9], the “MIC pH5.5, 320 mM NaCl, P. aeruginosa ATCCBAA-47” value was more than 500 μg/ml; the “MIC pH5.5, P. aeruginosa ATCCBAA-47” value is listed as more than 500 μg/ml; the “MIC at pH 7, P. aeruginosa ATCCBAA-47” value is 62.5 μg/ml. For the same molecule, the “MIC at pH 7, S. epidermidis ATCC12228” value with S. epidermidis ATCC12228 [10] is 31.25 μg/ml. In addition, in [11], the “MIC pH5.5, 320 mM NaCl, S. aureus 11729” value was more than 500 μg/ml; the “MIC pH5.5, S. aureus 11729” value is given as more than 500 μg/ml; the “MIC at pH 7, S. aureus DSMZ11729” value stood at 250 μg/ml. Besides, the “MBC following MIC at pH 7, P. aeruginosa DSMZ1299” value with P. aeruginosa DSMZ1299 [12] is listed as more than 500 μg/ml.
